Measurements: patent US6814960B1, “Hydroxystilbene compounds used as microbicidal active substances” (Ciba Specialty Chemicals Corporation, priority 1998, dated 2004)

What was measured:
Format in all cases: cell-based
[1] = system: Candida albicans ATCC 10231; assay: MIC in the agar diffusion test
Source text: (§1) Determination of the Minimum Inhibiting Concentration (MIC) in the Agar Diffusion Test

[2] = system: Staphylococcus aureus ATCC 9144; assay: MIC in the agar diffusion test; conditions: for MIC S. aureus: Mueller-Hinton agar, 24 hours at 37° C., (101), (103) solution in EtOH, others in DMSO
Source text: as §1

[3] = system: Aspergillus niger ATCC 6275; assay: MIC in the agar diffusion test
Source text: as §1

[4] = system: Aspergillus niger ATCC 6275; assay: MIC value in microtitre plates (optical density); conditions: microtitre plate, Sabouraud 2% glucose bouillon, 5 days at 28° C., optical density 620 nm, ≦20% growth; some data indicative values
Description: (§2) Determination of the Minimum Inhibiting Concentration (MIC Value) in Microtitre Plates
(§3) Casein/soybean flour peptone bouillon for the preparation of the precultures of the test bacteria and yeast.
(§4) Mycological slant agar for the preculture of moulds.
(§5) Examples of Test Organisms
(§6) The test substances are predissolved in dimethyl sulfoxide (DMSO) and tested in a serial dilution of 1:2.
(§7) Bacteria and yeast are cultured overnight in CASO bouillon, the mould on mycological slant agar and rinsed off with 10 ml of 0.85% sodium chloride solution (+0.1% TritonX-100).
(§8) All test organisms are adjusted to an organism count of 1.5×10^6 CFU/ml with 0.85% sodium chloride solution.
(§9) The test substances are prepipetted into microtitre plates in an amount of 8 μl per well.
(§10) Previously diluted organism substances are diluted 1:100 in CASO bouillon (bacteria and yeast) and Sabouraud 2% glucose bouillon (mould) and added to the test substances in an amount of 192 μl per well.
(§11) The test batches are incubated for 48 hours at 37° C. (bacteria and yeast) or for 5 days at 28° C. (mould).
(§12) After incubation, the growth is determined by reference to the turbidity of the test batches (optical density) at 620 nm in a microplate reader.
(§13) The minimum inhibiting concentration (MIC value) is the concentration of substance at which (compared with the growth control) an appreciable inhibition of the growth (≦20% growth) of the test organisms is ascertained.
(§14) One microtiter plate is used for each test organism and substance concentration. All substances tested in duplicate.

[5] = system: Candida albicans ATCC 10231; assay: MIC value in microtitre plates (optical density); conditions: microtitre plate, CASO bouillon, 48 hours at 37° C., optical density 620 nm, ≦20% growth; some data indicative values
Description: as §2, §3, §4, §5, §6, §7, §8, §9, §10, §11, §12, §13, §14

[6] = system: Escherichia coli NCTC 8196; assay: MIC value in microtitre plates (optical density); conditions: microtitre plate, CASO bouillon, 48 hours at 37° C., optical density 620 nm, ≦20% growth; some data indicative values
Description: as §2, §3, §4, §5, §6, §7, §8, §9, §10, §11, §12, §13, §14

[7] = system: Pseudomonas aeruginosa CIP A-22; assay: MIC value in microtitre plates (optical density); conditions: microtitre plate, CASO bouillon, 48 hours at 37° C., optical density 620 nm, ≦20% growth; some data indicative values
Description: as §2, §3, §4, §5, §6, §7, §8, §9, §10, §11, §12, §13, §14

[8] = system: Staphylococcus hominis DSM 20328; assay: MIC value in microtitre plates (optical density); conditions: microtitre plate, CASO bouillon, 48 hours at 37° C., optical density 620 nm, ≦20% growth; some data indicative values
Description: as §2, §3, §4, §5, §6, §7, §8, §9, §10, §11, §12, §13, §14

[9] = system: Escherichia coli NCTC 8196; assay: MIC in the agar diffusion test; conditions: Escherichia coli, NCTC8196, 24 h, read-out: MIC E. coli
Source text: as §1

| Compound | MIC C. albicans ([1]; Mueller-Hinton agar, 24 hours at 37° C., (101), (103) solution in EtOH, others in DMSO) | MIC S. aureus [2] | MIC A. niger ([3]; Sabouraud 4% glucose agar, 3 days at 28° C., (101) solution in EtOH, others in DMSO) | MIC values A. niger [4] | MIC values C. albicans [5] | MIC values E. coli [6] | MIC values P. aeruginosa [7] | MIC values S. heminis [8] | MIC ([3]; Aspergillus niger, ATCC6275, 72 h, read-out: MIC A. niger) | MIC ([1]; Candida albicans, ATCC10231, 24 h, read-out: MIC C. albicans) | MIC [9] | MIC ([2]; Staphylococcus aureus, ATCC9144, 24 h, read-out: MIC S. aureus) |
| --- | --- | --- | --- | --- | --- | --- | --- | --- | --- | --- | --- | --- |
| CN(C)c1ccc(/C=C/c2ccccc2)cc1 [Compound of formula (104)] | 600 ppm | 300 ppm | – | – | – | – | – | – | – | – | – | – |
| Oc1ccc(/C=C/c2ccc(Cl)cc2)cc1 [Compound of formula (106)] | – | 10 ppm | 600 ppm | – | – | – | – | – | – | – | – | – |
| COc1cc(/C=C/c2ccc(Cl)cc2)ccc1O [Comp. of formula 123] | – | – | – | 100 ppm | >100 ppm | >100 ppm | >100 ppm | >100 ppm | – | – | – | – |
| Oc1cccc(/C=C/c2ccc(Cl)cc2)c1 [Comp. of formula 120] | – | – | – | 30 ppm | 7.5 ppm | 7.5 ppm | >100 ppm | 7.5 ppm | – | – | – | – |
| CCOc1cc(/C=C/c2ccc(Cl)cc2)ccc1O [Comp. of formula 122] | – | – | – | >100 ppm | >100 ppm | >100 ppm | >100 ppm | >100 ppm | – | – | – | – |
| Cc1ccc(/C=C/c2ccc(O)cc2)cc1 [Comp. of formula 180] | – | – | – | >100 ppm | >100 ppm | >100 ppm | >100 ppm | 100 ppm | – | – | – | – |
| Cc1ccc(/C=C/c2cccc(O)c2)cc1 [Comp. of formula 181] | – | – | – | 30 ppm | 15 ppm | 15 ppm | 100 ppm | 15 ppm | – | – | – | – |
| COc1ccc(/C=C/c2ccccc2O)cc1 [Comp. of formula 137] | – | – | – | >100 ppm | >100 ppm | 100 ppm | >100 ppm | >100 ppm | – | – | – | – |
| COc1ccc(/C=C/c2ccc(O)c(OC)c2)cc1 [Comp. of formula 135] | – | – | – | >100 ppm | >100 ppm | >100 ppm | >100 ppm | >100 ppm | – | – | – | – |
| Cc1ccccc1/C=C/c1ccc(O)cc1 [Comp. of formula 168] | – | – | – | 30 ppm | 15 ppm | 30 ppm | 100 ppm | 7.5 ppm | – | – | – | – |
| COc1cc(/C=C/c2ccccc2C)cc(O)c1OC [Comp. of formula 175] | – | – | – | 100 ppm | 60 ppm | 60 ppm | 100 ppm | 60 ppm | – | – | – | – |
| CCOc1cc(/C=C/c2ccc(OC)cc2)ccc1O [Comp. of formula 134] | – | – | – | >100 ppm | >100 ppm | >100 ppm | >100 ppm | >100 ppm | – | – | – | – |
| COc1ccc(/C=C/c2ccc(OC)c(O)c2)cc1 [Comp. of formula 133] | – | – | – | >100 ppm | >100 ppm | >100 ppm | >100 ppm | >100 ppm | – | – | – | – |
| COc1ccc(/C=C/c2cc(O)c(OC)c(OC)c2)cc1 [Comp. of formula 138] | – | – | – | >100 ppm | >100 ppm | >100 ppm | >100 ppm | >100 ppm | – | – | – | – |
| COc1cc(/C=C/c2ccc(C)cc2)cc(O)c1OC [Comp. of formula 187] | – | – | – | >100 ppm | >100 ppm | >100 ppm | >100 ppm | >100 ppm | – | – | – | – |
| Cc1cccc(/C=C/c2ccccc2)c1O [Comp. of formula 116] | – | – | – | 60 ppm | 60 ppm | 60 ppm | 100 ppm | 60 ppm | – | – | – | – |

| Compound | MIC C. albicans ([1]; Mueller-Hinton agar, 24 hours at 37° C., (101), (103) solution in EtOH, others in DMSO) | MIC S. aureus [2] | MIC A. niger ([3]; Sabouraud 4% glucose agar, 3 days at 28° C., (101) solution in EtOH, others in DMSO) | MIC values A. niger [4] | MIC values C. albicans [5] | MIC values E. coli [6] | MIC values P. aeruginosa [7] | MIC values S. heminis [8] | MIC ([3]; Aspergillus niger, ATCC6275, 72 h, read-out: MIC A. niger) | MIC ([1]; Candida albicans, ATCC10231, 24 h, read-out: MIC C. albicans) | MIC [9] | MIC ([2]; Staphylococcus aureus, ATCC9144, 24 h, read-out: MIC S. aureus) |
| --- | --- | --- | --- | --- | --- | --- | --- | --- | --- | --- | --- | --- |
| Oc1ccc(/C=C/c2cccc3ccccc23)cc1 [Comp. of formula 156] | – | – | – | 30 ppm | 15 ppm | 60 ppm | >100 ppm | 7.5 ppm | – | – | – | – |
| COc1ccc(/C=C/c2ccc(C)cc2)cc1O [Comp. of formula 182] | – | – | – | >100 ppm | >100 ppm | >100 ppm | >100 ppm | >100 ppm | – | – | – | – |
| Cc1ccccc1/C=C/c1cccc(O)c1 [Comp. of formula 169] | – | – | – | 30 ppm | 30 ppm | 60 ppm | 100 ppm | 30 ppm | – | – | – | – |
| Oc1ccccc1/C=C/c1ccc(-c2ccccc2)cc1 [Comp. of formula 150] | – | – | – | >100 ppm | >100 ppm | >100 ppm | >100 ppm | >100 ppm | – | – | – | – |
| Cc1ccccc1/C=C/c1cccc(C)c1O [Comp. of formula 177] | – | – | – | 60 ppm | 60 ppm | 60 ppm | >100 ppm | 30 ppm | – | – | – | – |
| COc1cc(/C=C/c2ccc(C)cc2)ccc1O [Comp. of formula 184] | – | – | – | 100 ppm | >100 ppm | >100 ppm | >100 ppm | >100 ppm | – | – | – | – |
| Oc1ccc(/C=C/c2ccc(-c3ccccc3)cc2)cc1 [Comp. of formula 143] | – | – | – | >100 ppm | >100 ppm | >100 ppm | >100 ppm | >100 ppm | – | – | – | – |
| CCOc1cc(/C=C/c2ccc(-c3ccccc3)cc2)ccc1O [Comp. of formula 147] | – | – | – | >100 ppm | >100 ppm | >100 ppm | >100 ppm | >100 ppm | – | – | – | – |
| Cc1cccc(/C=C/c2ccc(Cl)cc2)c1O [Comp. of formula 128] | – | – | – | 100 ppm | >100 ppm | >100 ppm | >100 ppm | >100 ppm | – | – | – | – |
| COc1cc(/C=C/c2ccccc2)cc(O)c1OC [Comp. of formula 114] | – | – | – | 100 ppm | >100 ppm | 100 ppm | >100 ppm | >100 ppm | – | – | – | – |
| COc1cc(/C=C/c2ccccc2C)ccc1O [Comp. of formula 172] | – | – | – | >100 ppm | 10 ppm | >100 ppm | >100 ppm | >100 ppm | – | – | – | – |
| Oc1ccccc1/C=C/c1ccc(Cl)cc1 [Comp. of formula 125] | – | – | – | 60 ppm | 60 ppm | 15 ppm | 100 ppm | 60 ppm | – | – | – | – |
| Oc1ccccc1/C=C/c1cccc2ccccc12 [Comp. of formula 162] | – | – | – | 15 ppm | 30 ppm | 30 ppm | >100 ppm | 7.5 ppm | – | – | – | – |
| COc1cc(/C=C/c2ccc(Cl)cc2)cc(O)c1OC [Comp. of formula 126] | – | – | – | 100 ppm | 100 ppm | >100 ppm | >100 ppm | >100 ppm | – | – | – | – |
| Oc1cccc(/C=C/c2ccccc2)c1 [Compound of formula (102), 3-hydroxystilbene] | – | – | – | – | – | – | – | – | 10 mg/L | 100 mg/L | 100 mg/L | 100 mg/L |
